According to ChEMBL document CHEMBL1143544, “The role of QSAR in dopamine interactions” (Bioorg Med Chem Lett, 2005):
Blank lines part the entries; values can stand above or below the compound they belong to.

Columns and labels:
[1] = target: Sodium-dependent dopamine transporter (Homo sapiens, UniProt Q01959); assay: Ability of compound to inhibit dopamine uptake of receptor was determined; conditions: read-out: Log 1/Ki (converted)
D(4) dopamine receptor = target: T1, D(4) dopamine receptor (Homo sapiens, UniProt P21917); assay: biochemical
T1 sequence (P21917 whole entry): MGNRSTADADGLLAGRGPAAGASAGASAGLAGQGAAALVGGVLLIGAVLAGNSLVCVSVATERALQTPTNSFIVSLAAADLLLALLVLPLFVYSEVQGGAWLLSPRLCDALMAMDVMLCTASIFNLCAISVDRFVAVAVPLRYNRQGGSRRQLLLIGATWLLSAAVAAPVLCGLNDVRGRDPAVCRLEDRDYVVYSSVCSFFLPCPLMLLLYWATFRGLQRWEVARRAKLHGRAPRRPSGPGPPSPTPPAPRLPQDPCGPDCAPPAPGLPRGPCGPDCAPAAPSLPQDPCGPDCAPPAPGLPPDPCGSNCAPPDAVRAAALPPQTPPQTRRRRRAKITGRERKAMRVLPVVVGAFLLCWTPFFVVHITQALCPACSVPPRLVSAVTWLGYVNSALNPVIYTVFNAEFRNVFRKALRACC
Description: Binding affinity towards human dopamine receptor D4 expressed in CHO cells was determined by using [3H]thymidine as radioligand

D(2) dopamine receptor = D(2) dopamine receptor (Homo sapiens, UniProt P14416)
D(2) dopamine receptor, sequence (P14416 whole entry): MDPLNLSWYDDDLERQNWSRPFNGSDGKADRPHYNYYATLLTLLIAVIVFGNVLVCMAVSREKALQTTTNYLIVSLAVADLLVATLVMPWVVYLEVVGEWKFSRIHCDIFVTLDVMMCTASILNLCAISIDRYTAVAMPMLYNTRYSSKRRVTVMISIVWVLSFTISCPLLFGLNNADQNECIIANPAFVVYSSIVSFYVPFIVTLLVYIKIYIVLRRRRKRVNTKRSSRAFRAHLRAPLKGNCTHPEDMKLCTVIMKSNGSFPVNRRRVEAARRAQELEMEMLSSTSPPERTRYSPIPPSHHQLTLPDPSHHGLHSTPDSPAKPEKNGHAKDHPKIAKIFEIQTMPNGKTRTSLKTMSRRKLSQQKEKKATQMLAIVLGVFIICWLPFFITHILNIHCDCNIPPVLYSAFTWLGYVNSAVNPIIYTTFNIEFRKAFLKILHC
Description: Binding affinity towards human dopamine receptor D2 was determined by using [3H]spiperone as radioligand

[2] = Binding affinity towards dopamine receptor D4 was determined; parameters: species or system Homo sapiens
[3] = Binding affinity towards dopamine receptor D3 was determined; parameters: species or system Homo sapiens
[4] = Binding affinity towards dopamine receptor D2 was determined; parameters: species or system Homo sapiens
[5] = Binding affinity of compound towards dopamine receptor D2 was determined; parameters: species or system Homo sapiens
[6] = Binding affinity to displace [3H]spiperone from dopamine receptor D2 was determined; parameters: species or system Homo sapiens
[7] = Binding affinity of compound towards dopamine receptor D3 was determined; parameters: species or system Homo sapiens

Sodium-dependent dopamine transporter, sequence (Q01959 whole entry): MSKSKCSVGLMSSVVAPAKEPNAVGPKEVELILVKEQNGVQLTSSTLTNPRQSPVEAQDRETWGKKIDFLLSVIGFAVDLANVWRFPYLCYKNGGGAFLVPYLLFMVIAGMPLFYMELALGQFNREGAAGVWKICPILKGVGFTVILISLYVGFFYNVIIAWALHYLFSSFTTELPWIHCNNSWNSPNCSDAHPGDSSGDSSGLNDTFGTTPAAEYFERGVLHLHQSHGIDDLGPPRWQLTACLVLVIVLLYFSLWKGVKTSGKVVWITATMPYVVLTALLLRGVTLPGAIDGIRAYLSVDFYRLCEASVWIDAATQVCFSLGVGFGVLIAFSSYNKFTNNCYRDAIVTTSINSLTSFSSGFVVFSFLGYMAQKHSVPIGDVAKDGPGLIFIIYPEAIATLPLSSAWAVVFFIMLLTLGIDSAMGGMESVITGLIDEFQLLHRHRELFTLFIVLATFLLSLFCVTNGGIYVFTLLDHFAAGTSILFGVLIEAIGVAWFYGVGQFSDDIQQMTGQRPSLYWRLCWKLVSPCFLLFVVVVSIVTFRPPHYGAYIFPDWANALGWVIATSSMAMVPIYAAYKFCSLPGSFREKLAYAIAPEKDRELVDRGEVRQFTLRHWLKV

Ki (D(4) dopamine receptor): 3.39 nM
Ki (D(2) dopamine receptor): 174 nM
SMILES: COc1ccccc1N1CCN(CNC(=O)c2ccc(C)cc2)CC1

Ki (D(4) dopamine receptor): 3.47 nM
Ki (D(2) dopamine receptor): 269 nM
SMILES: COc1ccccc1N1CCN(CNC(=O)c2ccc(Cl)cc2)CC1

Log Ki [3]: -8.5
SMILES: COc1ccc(OC)c(N2CCN(CCCCNC(=O)c3ccc(Br)cc3)CC2)c1

Ki (D(4) dopamine receptor): 12.9 nM
Ki (D(2) dopamine receptor): 2450 nM
SMILES: COc1ccccc1N1CCN(CNC(=O)c2cccc(C)c2)CC1

Log 1/Ki [5]: 6.65
SMILES: COc1ccccc1N1CCN(CCNC2=C(Br)CN3c4c(n(C)c(=O)n(C)c4=O)NC3N2)CC1 (stereo not given)

Log 1/Ki [5]: 7.03
SMILES: Cn1c(=O)c2c(nc3nc(NCCCN4CCN(c5cccc(Cl)c5)CC4)ccn32)n(C)c1=O

Ki (D(4) dopamine receptor): 15.8 nM
Ki (D(2) dopamine receptor): 468 nM
SMILES: Cc1cccc(C(=O)NCN2CCN(c3ccccc3Cl)CC2)c1

Log 1/Ki [5]: 5.93
SMILES: COc1ccccc1N1CCN(CCCNc2ccn3c(n2)nc2c3c(=O)n(C)c(=O)n2C)CC1

Log Ki [3]: -8.2
SMILES: O=C(NCCCCN1CCN(c2ccccc2)CC1)c1ccc(Br)cc1

Log Ki [3]: -9.7
SMILES: COc1ccccc1N1CCN(CCCCNC(=O)c2ccc(-c3ccc(N)cc3)cc2)CC1

Log 1/Ki [5]: 5.88
SMILES: COc1ccccc1N1CCN(CCNC2=CCN3c4c(n(C)c(=O)n(C)c4=O)NC3N2)CC1 (stereo not given)

Log 1/Ki [5]: 6.49
SMILES: COc1ccccc1N1CCN(CCCNc2nc3nc4c(c(=O)n(C)c(=O)n4C)n3cc2Br)CC1

Log 1/Ki [5]: 6.37
SMILES: Cn1c(=O)c2c(nc3nc(NCCCN4CCN(c5ccccc5)CC4)ccn32)n(C)c1=O

Ki (D(4) dopamine receptor): 107 nM
Ki (D(2) dopamine receptor): 178 nM
SMILES: O=C(NCN1CCN(c2ccccc2Cl)CC1)c1ccccc1

Log 1/Ki [2]: 7.11
Log 1/Ki [3]: 6.96
Log 1/Ki [4]: 7.81
SMILES: O=C(CCCN1CCC(CO)(c2ccc(Cl)cc2)CC1)c1ccc(F)cc1

Log 1/Ki [5]: 6.74
SMILES: Cn1c2c(c(=O)n(C)c1=O)N1CC=C(NCCN3CCN(c4cccc(Cl)c4)CC3)NC1N2 (stereo not given)

Ki (D(4) dopamine receptor): 3.89 nM
Ki (D(2) dopamine receptor): 603 nM
SMILES: N#Cc1ccccc1N1CCN(CNC(=O)c2ccc(Cl)cc2)CC1

Ki (D(4) dopamine receptor): 5.25 nM
Ki (D(2) dopamine receptor): 2290 nM
SMILES: N#Cc1ccccc1N1CCN(CNC(=O)c2cccc(Cl)c2)CC1

Log 1/Ki [7]: 5.37
SMILES: CN1CCN(C2=Cn3c(/C=N/O)ccc3Sc3ccccc32)CC1

Log Ki [3]: -9.5
SMILES: COc1ccccc1N1CCN(CCCCNC(=O)c2ccc(-c3ccc(C(C)=O)cc3)cc2)CC1

Ki (D(4) dopamine receptor): 24 nM
Ki (D(2) dopamine receptor): 3020 nM
SMILES: N#Cc1ccccc1N1CCN(CNC(=O)c2ccccc2)CC1

Ki (D(4) dopamine receptor): 1.2 nM
Ki (D(2) dopamine receptor): 380 nM
SMILES: Cc1ccc(C(=O)NCN2CCN(c3ccccc3C#N)CC2)cc1

Ki (D(4) dopamine receptor): 30.9 nM
Ki (D(2) dopamine receptor): 2450 nM
SMILES: COc1ccccc1N1CCN(CNC(=O)c2ccccc2)CC1

Ki (D(2) dopamine receptor): 363 nM
SMILES: O=C(NCN1CCN(c2ccccc2Cl)CC1)c1cccc(Cl)c1

Log Ki [3]: -9.3
SMILES: COc1ccccc1N1CCN(CCCCNC(=O)c2ccc(Br)cc2)CC1

Log 1/Ki [5]: 6.58
SMILES: Cn1c(=O)c2c(nc3nc(NCCCN4CCN(c5cccc(Cl)c5)CC4)c(Br)cn32)n(C)c1=O

Ki (D(4) dopamine receptor): 219 nM
Ki (D(2) dopamine receptor): 49 nM
SMILES: Cc1ccc(C(=O)NCN2CCN(c3ccccc3Cl)CC2)cc1

Ki (D(4) dopamine receptor): 8.32 nM
Ki (D(2) dopamine receptor): 66.1 nM
SMILES: O=C(NCN1CCN(c2ccccc2Cl)CC1)c1ccc(Cl)cc1

Ki (D(2) dopamine receptor): 1450 nM
SMILES: COc1ccccc1N1CCN(CNC(=O)c2cccc(Cl)c2)CC1

Log Ki [3]: -9.5
SMILES: COc1ccccc1N1CCN(CCCCNC(=O)c2ccc(-c3ccc(S(C)(=O)=O)cc3)cc2)CC1

The next lines start with the compound.

SMILES: OCCOCCN1C2CCC1CC(OC(c1ccc(F)cc1)c1ccc(F)cc1)C2 (stereo not given)
Ki [1]: 49 nM

SMILES: O=C(CCCN1CCC(c2ccc(Cl)cc2)CC1)c1ccc(F)cc1
Log 1/Ki [2]: 7.59
Log 1/Ki [3]: 7.34
Log 1/Ki [4]: 7.81

SMILES: Fc1ccc(C(OC2CC3CCC(C2)N3CCOCCN2CCOCC2)c2ccc(F)cc2)cc1 (stereo not given)
Ki [1]: 661 nM

SMILES: Cc1ccc(CC2(O)CCN(CCCC(=O)c3ccc(F)cc3)CC2)cc1
Log 1/Ki [2]: 7.23
Log 1/Ki [3]: 8.05
Log 1/Ki [4]: 8.1

SMILES: Cn1c2c(c(=O)n(C)c1=O)N1CC(Br)=C(NCCN3CCN(c4cccc(Cl)c4)CC3)NC1N2 (stereo not given)
Log 1/Ki [5]: 6.78

SMILES: Cn1c2c(c(=O)n(C)c1=O)N1CC(Br)=C(NCCN3CCN(c4ccccc4)CC3)NC1N2 (stereo not given)
Log 1/Ki [5]: 5.9

SMILES: CCN1CCCC1CNC(=O)c1c(O)c(CCCF)cc(OC)c1OC (stereo not given)
Log 1/Ki [6]: 9.1

SMILES: CCN1CCCC1CNC(=O)c1cc(CCF)cc(OC)c1OC (stereo not given)
Log 1/Ki [6]: 8.28

SMILES: O=C(CCCN1CCC(CCO)(c2ccc(Cl)cc2)C1)c1ccc(F)cc1 (stereo not given)
Log 1/Ki [2]: 6.71
Log 1/Ki [3]: 7.49
Log 1/Ki [4]: 7.64

SMILES: CCN1CCCC1CNC(=O)c1cc(CCCF)cc(OC)c1OC (stereo not given)
Log 1/Ki [6]: 8.36

SMILES: O=C(CCN1[C@@H]2CC[C@H]1C[C@@H](OC(c1ccc(F)cc1)c1ccc(F)cc1)C2)Nc1ccccc1
Ki [1]: 5.01 nM

SMILES: Fc1ccc(C(OC2CC3CCC(C2)N3CCNCc2ccccc2)c2ccc(F)cc2)cc1 (stereo not given)
Ki [1]: 8.13 nM

SMILES: CCN1CCCC1CNC(=O)c1c(O)c(CCF)cc(OC)c1OC (stereo not given)
Log 1/Ki [6]: 9.11

SMILES: O=C(CCCN1CCC(CO)(c2ccc(Cl)cc2)C1)c1ccc(F)cc1 (stereo not given)
Log 1/Ki [2]: 7.62
Log 1/Ki [3]: 6.78
Log 1/Ki [4]: 7.36

SMILES: CN(CCCC(=O)c1ccc(F)cc1)CCC(O)c1ccc(Cl)cc1 (stereo not given)
Log 1/Ki [2]: 6.72
Log 1/Ki [3]: 6.79
Log 1/Ki [4]: 7.58

SMILES: CCN1CCCC1CNC(=O)c1cccc(OC)c1OC (stereo not given)
Log 1/Ki [6]: 7.18

SMILES: Cn1c(=O)c2c(nc3nc(NCCCN4CCN(c5ccccc5)CC4)c(Br)cn32)n(C)c1=O
Log 1/Ki [5]: 6.38

SMILES: CCN1CCCC1CNC(=O)c1cc(Br)cc(OC)c1OC (stereo not given)
Log 1/Ki [6]: 9.12

SMILES: CCCc1cc(OC)c(OC)c(C(=O)NCC2CCCN2CC)c1 (stereo not given)
Log 1/Ki [6]: 8.16

SMILES: Fc1ccc(C(OC2CC3CCC(C2)N3CCOCc2cccs2)c2ccc(F)cc2)cc1 (stereo not given)
Ki [1]: 18.6 nM

SMILES: Fc1ccc(C(OC2CC3CCC(C2)N3CCOCc2ccccc2)c2ccc(F)cc2)cc1 (stereo not given)
Ki [1]: 22.4 nM

SMILES: CCCc1cc(OC)c(OC)c(C(=O)NCC2CCCN2CC)c1O (stereo not given)
Log 1/Ki [6]: 8.89

SMILES: O=C(NCCN1C2CCC1CC(OC(c1ccc(F)cc1)c1ccc(F)cc1)C2)c1ccccc1 (stereo not given)
Ki [1]: 6.46 nM

SMILES: O=C(NCCN1C2CCC1CC(OC(c1ccc(F)cc1)c1ccc(F)cc1)C2)c1cccnc1 (stereo not given)
Ki [1]: 14.1 nM

SMILES: NCCN1[C@@H]2CC[C@H]1C[C@@H](OC(c1ccc(F)cc1)c1ccc(F)cc1)C2
Ki [1]: 25.7 nM

SMILES: Fc1ccc(C(OC2CC3CCC(C2)N3CCCOc2ccccc2)c2ccc(F)cc2)cc1 (stereo not given)
Ki [1]: 229 nM
